For 30 compounds, IC50 results are on record in US10189841B2, “Purinones as ubiquitin-specific protease 1 inhibitors” (Forma Therapeutics, Inc., priority 2015, dated 2019).

USP1 (construct USP1 (I-785, GG670, 671AA)/UAF1 (I-677)-Flag), sequence (O94782 whole entry G670A/G671A): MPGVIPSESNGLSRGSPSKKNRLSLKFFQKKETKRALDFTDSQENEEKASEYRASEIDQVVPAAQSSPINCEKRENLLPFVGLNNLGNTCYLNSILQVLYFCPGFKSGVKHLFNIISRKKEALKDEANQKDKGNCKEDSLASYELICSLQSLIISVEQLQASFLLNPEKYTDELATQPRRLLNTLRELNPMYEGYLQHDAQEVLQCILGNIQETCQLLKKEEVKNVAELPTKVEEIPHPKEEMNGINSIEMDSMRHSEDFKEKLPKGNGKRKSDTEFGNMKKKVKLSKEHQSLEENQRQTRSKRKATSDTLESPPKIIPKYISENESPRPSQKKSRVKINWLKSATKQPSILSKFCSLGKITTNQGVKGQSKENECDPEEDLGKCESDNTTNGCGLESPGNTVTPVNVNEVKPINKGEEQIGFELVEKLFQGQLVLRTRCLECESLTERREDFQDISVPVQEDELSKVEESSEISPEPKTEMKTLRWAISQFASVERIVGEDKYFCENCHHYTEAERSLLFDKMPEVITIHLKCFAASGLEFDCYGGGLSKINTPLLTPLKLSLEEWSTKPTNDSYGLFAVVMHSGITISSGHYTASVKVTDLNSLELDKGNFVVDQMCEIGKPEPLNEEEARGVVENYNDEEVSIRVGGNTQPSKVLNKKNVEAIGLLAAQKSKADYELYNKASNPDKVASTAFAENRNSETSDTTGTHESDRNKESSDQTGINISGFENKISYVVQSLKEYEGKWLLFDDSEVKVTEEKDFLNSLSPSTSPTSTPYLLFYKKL
USP1 (construct USP1 (I-785, GG670, 671AA)/UAF1 (I-677)-Flag), sequence (Q8TAF3 whole entry partner): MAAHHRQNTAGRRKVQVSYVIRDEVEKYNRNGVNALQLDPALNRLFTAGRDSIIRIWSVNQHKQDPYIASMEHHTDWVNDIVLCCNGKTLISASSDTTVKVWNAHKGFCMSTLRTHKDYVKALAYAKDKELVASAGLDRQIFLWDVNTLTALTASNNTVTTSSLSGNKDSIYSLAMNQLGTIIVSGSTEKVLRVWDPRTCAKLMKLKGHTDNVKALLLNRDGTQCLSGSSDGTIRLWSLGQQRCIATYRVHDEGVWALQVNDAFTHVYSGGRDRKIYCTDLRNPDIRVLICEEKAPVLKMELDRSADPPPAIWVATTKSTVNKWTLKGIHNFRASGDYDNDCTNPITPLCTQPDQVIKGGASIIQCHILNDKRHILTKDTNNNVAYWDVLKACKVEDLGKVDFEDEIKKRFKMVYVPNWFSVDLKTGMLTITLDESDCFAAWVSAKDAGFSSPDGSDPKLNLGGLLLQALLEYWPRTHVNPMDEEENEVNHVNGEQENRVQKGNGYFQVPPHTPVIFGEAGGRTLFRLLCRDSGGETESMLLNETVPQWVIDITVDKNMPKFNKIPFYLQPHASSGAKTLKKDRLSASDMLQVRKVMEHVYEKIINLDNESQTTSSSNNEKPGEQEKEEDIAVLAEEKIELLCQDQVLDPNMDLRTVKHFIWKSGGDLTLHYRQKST

This experiment concerns the target USP1 (construct USP1 (I-785, GG670, 671AA)/UAF1 (I-677)-Flag) (Homo sapiens (Human), UniProt O94782, G670A/G671A). The experiment is described as follows: Ubiquitin-Rhodamine 110 assay for USP1 activity. Format: biochemical. As to conditions: USP1/UAF1 25 pM, Ub-Rh110 25 nM, 30 min preincubation. The essentials: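 Ub-Rh110 (25 nM, ≪Km) cleavage read at ex 485/em 535 in Tris pH 8.0, CaCl2, GSH, Prionex, Triton X-100. The screen used 10 µM compound, 100 pM USP1/UAF1 and 45 min at RT.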
As a reminder, the IC50 is the concentration that inhibits the measured activity by half. Low readings indicate higher potency, high ones lower potency. For the compound `CCOC(=O)c1cc(C)nn1-c1ccc(Cn2c(=O)[nH]c3cnc(-c4ccccc4C4CC4)nc32)cc1` [Compound I-99, ethyl 1-(4-((2-(2-cyclopropylphenyl)-8-oxo-7,8-dihydro-9H-purin-9-yl)methyl)phenyl)-3-methyl-1H-pyrazole-5-carboxylate], the IC50 was less than 50 nM.
`CC(C)c1ccccc1-c1ncc2[nH]c(=O)n(C3(c4ccc(F)cc4)CC3)c2n1` [Compound I-227, 9-(1-(4-fluorophenyl)cyclopropyl)-2-(2-isopropylphenyl)-7,9-dihydro-8H-purin-8-one] registered an IC50 of less than 50 nM.
Regarding `CC(C)c1ccccc1-c1ncc2c(n1)n(Cc1cccc(OCc3ccccn3)c1)c(=O)n2C` [Compound I-242, 2-(2-isopropylphenyl)-7-methyl-9-(3-(pyridin-2-ylmethoxy)benzyl)-7,9-dihydro-8H-purin-8-one], the concentration for half-maximal inhibition (IC50) was more than 2000 nM.
The value for `CC(C)c1ncccc1-c1ncc2[nH]c(=O)n(Cc3ccc(-c4nc(C(F)F)cn4C)cc3)c2n1` [Compound I-87, 9-(4-(4-(difluoromethyl)-1-methyl-1H-imidazol-2-yl)benzyl)-2-(2-isopropylpyridin-3-yl)-7,9-dihydro-8H-purin-8-one] was 50 to 200 nM; that for `[2H]C([2H])([2H])n1cc(C(F)(F)F)nc1-c1ccc(Cn2c(=O)n(C([2H])([2H])[2H])c3cnc(-c4cccnc4C(C)C)nc32)cc1` [Compound I-130, 2-(2-isopropylpyridin-3-yl)-7-(methyl-d3)-9-(4-(1-(methyl-d3)-4-(trifluoromethyl)-1H-imidazol-2-yl)benzyl)-7,9-dihydro-8H-purin-8-one] was less than 50 nM.
The value for `Cc1cc(COc2ccc(Cn3c(=O)n(C)c4cnc(-c5ccccc5C(C)C)nc43)cc2)no1` [Compound I-235, 2-(2-isopropylphenyl)-7-methyl-9-(4-((5-methylisoxazol-3-yl)methoxy)benzyl)-7,9-dihydro-8H-purin-8-one] was 200 to 2000 nM; that for `CC(C)c1c(F)cccc1-c1ncc2[nH]c(=O)n(Cc3ccc(-c4nc(C(F)(F)F)cn4C4COC4)cc3)c2n1` [Compound I-201, 2-(3-fluoro-2-isopropylphenyl)-9-(4-(1-(oxetan-3-yl)-4-(trifluoromethyl)-1H-imidazol-2-yl)benzyl)-7,9-dihydro-8H-purin-8-one] was less than 50 nM; that for `CC(C)c1ccccc1-c1ncc2c(n1)n(Cc1ccc(OC3CCOCC3)cc1)c(=O)n2C` [Compound I-238, 2-(2-isopropylphenyl)-7-methyl-9-(4-((tetrahydro-2H-pyran-4-yl)oxy)benzyl)-7,9-dihydro-8H-purin-8-one] was 200 to 2000 nM.
The value for `CC(C)c1ccccc1-c1ncc2[nH]c(=O)n([C@@H](C)c3ccc(-c4nc(C(F)(F)F)cn4C)cc3)c2n1` [Compound I-215, (S)-2-(2-isopropylphenyl)-9-(1-(4-(1-methyl-4-(trifluoromethyl)-1H-imidazol-2-yl)phenyl)ethyl)-7,9-dihydro-8H-purin-8-one] was less than 50 nM.
As to `CC(C)c1ccccc1-c1ncc2c(n1)n(Cc1ccc(-c3ccccc3OCCN(C)C)cc1)c(=O)n2C` [Compound I-259, 9-((2′-(2-(dimethylamino)ethoxy)-[1,1′-biphenyl]-4-yl)methyl)-2-(2-isopropylphenyl)-7-methyl-7,9-dihydro-8H-purin-8-one], the IC50 was less than 50 nM.
As for `Cc1cc(Cl)nn1-c1ccc(Cn2c(=O)[nH]c3cnc(-c4cccnc4C(C)C)nc32)cc1` [Compound I-52, 9-(4-(3-chloro-5-methyl-1H-pyrazol-1-yl)benzyl)-2-(2-isopropylpyridin-3-yl)-7,9-dihydro-8H-purin-8-one], the half-inhibitory concentration (IC50) was less than 50 nM.
Then `CC(C)c1ccccc1-c1ncc2[nH]c(=O)n(Cc3ccc(-c4nc(C(F)(F)F)cn4CCO)cc3)c2n1` [Compound I-506, 9-(4-(1-(2-hydroxyethyl)-4-(trifluoromethyl)-1H-imidazol-2-yl)benzyl)-2-(2-isopropylphenyl)-7,9-dihydro-8H-purin-8-one], with less than 50 nM; and `Cc1cc(C)n(-c2cnc(Cn3c(=O)[nH]c4cnc(-c5ccccc5C(C)C)nc43)cn2)n1` [Compound I-510, 9-((5-(3,5-Dimethyl-1H-pyrazol-1-yl)pyrazin-2-yl)methyl)-2-(2-isopropylphenyl)-7,9-dihydro-8H-purin-8-one], with 50 to 200 nM.
The value for `CC(C)c1ccccc1-c1ncc2c(n1)n(Cc1ccc(-c3ncn(C)n3)cc1)c(=O)n2C` [Compound I-272, 2-(2-isopropylphenyl)-7-methyl-9-(4-(1-methyl-1H-1,2,4-triazol-3-yl)benzyl)-7,9-dihydro-8H-purin-8-one] was 50 to 200 nM; that for `CC(C)Oc1ccc(-c2ncc3[nH]c(=O)n(Cc4ccc(-c5nc(C(F)(F)F)cn5C)cc4)c3n2)c(F)n1` [Compound I-74, 2-(2-fluoro-6-isopropoxypyridin-3-yl)-9-(4-(1-methyl-4-(trifluoromethyl)-1H-imidazol-2-yl)benzyl)-7,9-dihydro-8H-purin-8-one] was 200 to 2000 nM; that for `CC(C)c1ccccc1-c1ncc2c(n1)n(Cc1ccc(-c3cccc4ncnn34)cc1)c(=O)n2C` [Compound I-266, 9-(4-([1,2,4]triazolo[1,5-a]pyridin-5-yl)benzyl)-2-(2-isopropylphenyl)-7-methyl-7,9-dihydro-8H-purin-8-one] was 50 to 200 nM.
With `COc1ccn(-c2ccc(Cn3c(=O)[nH]c4cnc(-c5ccccc5C(C)C)nc43)cc2)n1` [Compound I-204, 2-(2-isopropylphenyl)-9-(4-(3-methoxy-1H-pyrazol-1-yl)benzyl)-7,9-dihydro-8H-purin-8-one], the IC50 is less than 50 nM.
Compound `Cn1cc(C(F)(F)F)nc1-c1ccc(Cn2c(=O)n(C)c3cnc(-c4cccnc4OCC(F)(F)F)nc32)cc1` [Compound I-50, 7-methyl-9-(4-(1-methyl-4-(trifluoromethyl)-1H-imidazol-2-yl)benzyl)-2-(2-(2,2,2-trifluoroethoxy)pyridin-3-yl)-7,9-dihydro-8H-purin-8-one] returned a concentration for half-maximal inhibition (IC50) of less than 50 nM.
Take `CC(C)c1ccccc1-c1ncc2c(n1)n(Cc1ccc(-c3cccc4cn[nH]c34)cc1)c(=O)n2C` [Compound I-268, 9-(4-(1H-indazol-7-yl)benzyl)-2-(2-isopropylphenyl)-7-methyl-7,9-dihydro-8H-purin-8-one]: the IC50 fell in the range of 50 to 200 nM.
Then `CC(C)c1ccccc1-c1ncc2c(n1)n(Cc1ccc(OCC3CCCN(C)C3)cc1)c(=O)n2C` (stereo not drawn) [Compound I-230, 2-(2-isopropylphenyl)-7-methyl-9-(4-((1-methylpiperidin-3-yl)methoxy)benzyl)-7,9-dihydro-8H-purin-8-one], with 200 to 2000 nM.
The value for `CC(=O)c1nc(-c2ccccc2C(C)C)nc2c1[nH]c(=O)n2Cc1ccc(-c2nc(C(F)(F)F)cn2C)cc1` [Compound I-534, 6-Acetyl-2-(2-isopropylphenyl)-9-(4-(1-methyl-4-(trifluoromethyl)-1H-imidazol-2-yl)benzyl)-7,9-dihydro-8H-purin-8-one] was 50 to 200 nM; that for `CC(C)c1ccccc1-c1ncc2[nH]c(=O)n(Cc3ccc(-c4cn[nH]n4)cc3)c2n1` [Compound I-523, 9-(4-(1H-1,2,3-triazol-5-yl)benzyl)-2-(2-isopropylphenyl)-7,9-dihydro-8H-purin-8-one] was 50 to 200 nM; that for `Cn1cc(C(F)(F)F)nc1-c1ccc(Cn2c(=O)[nH]c3cnc(-c4cccnc4N4CCC4)nc32)cc1` [Compound I-335, 2-(2-(azetidin-1-yl)pyridin-3-yl)-9-(4-(1-methyl-4-(trifluoromethyl)-1H-imidazol-2-yl)benzyl)-7,9-dihydro-8H-purin-8-one] was 50 to 200 nM.
Regarding `CC(C)COc1ncccc1-c1ncc2[nH]c(=O)n(Cc3ccc(-c4nc(C(F)(F)F)cn4C)cc3)c2n1` [Compound I-422, 2-(2-isobutoxypyridin-3-yl)-9-(4-(1-methyl-4-(trifluoromethyl)-1H-imidazol-2-yl)benzyl)-7,9-dihydro-8H-purin-8-one], the 50% inhibitory concentration (IC50) is less than 50 nM.
For `Cn1cc(C(F)(F)F)nc1-c1ccc(Cn2c(=O)[nH]c3cnc(-c4cccnc4N4CCCC4)nc32)cc1` [Compound I-325, 9-(4-(1-methyl-4-(trifluoromethyl)-1H-imidazol-2-yl)benzyl)-2-(2-(pyrrolidin-1-yl)pyridin-3-yl)-7,9-dihydro-8H-purin-8-one], the IC50 was less than 50 nM.
For the compound `CC(C)c1ccccc1-c1ncc2c(n1)n(CC1CCN(c3ncccn3)CC1)c(=O)n2C` [Compound I-493, 2-(2-isopropylphenyl)-7-methyl-9-((1-(pyrimidin-2-yl)piperidin-4-yl)methyl)-7,9-dihydro-8H-purin-8-one], the IC50 was more than 2000 nM.
The value for `CC(C)c1ccccc1-c1ncc2[nH]c(=O)n(Cc3ccc(C(=O)NC4(c5ccccc5)CCCC4)cc3)c2n1` [Compound I-359, 4-((2-(2-isopropylphenyl)-8-oxo-7,8-dihydro-9H-purin-9-yl)methyl)-N-(1-phenylcyclopentyl)benzamide] was 50 to 200 nM; that for `CC(C)c1ccccc1-c1ncc2c(n1)n(Cc1ccc(-c3nc(C#N)cn3C)cc1)c(=O)n2C` [Compound I-541, 2-(4-((2-(2-Isopropylphenyl)-7-methyl-8-oxo-7,8-dihydro-9H-purin-9-yl)methyl)phenyl)-1-methyl-1H-imidazole-4-carbonitrile] was less than 50 nM.
Then `CC(C)c1ccccc1-c1ncc2[nH]c(=O)n(Cc3ccc(-n4ccc(C5CCN(C)CC5)n4)cc3)c2n1` [Compound I-439, 2-(2-isopropylphenyl)-9-(4-(3-(1-methylpiperidin-4-yl)-1H-pyrazol-1-yl)benzyl)-7,9-dihydro-8H-purin-8-one], with 50 to 200 nM; and `CC(C)c1ccccc1-c1ncc2[nH]c(=O)n(Cc3ccc(-n4cc(C5CC5)nn4)cc3)c2n1` [Compound I-343, 9-(4-(4-cyclopropyl-1H-1,2,3-triazol-1-yl)benzyl)-2-(2-isopropylphenyl)-7,9-dihydro-8H-purin-8-one], with 50 to 200 nM.
